Data published in ChEMBL document CHEMBL1147777, “Synthesis and antibacterial activity of substituted 1,2,3,4-tetrahydropyrazino [1,2-a] indoles” (2006).
The source made the active and inactive calls. The calls are words filed in the database; no cut-off is given here.

What was measured:
[1] = system: RBCs; experiment: Cytotoxicity against erythrocytes by haemolytic assay at upto 500 ug/ml; format: functional, Erythrocyte
[2] = system: Salmonella typhi; experiment: MIC per disc against Salmonella typhi by disc diffusion method; format: functional, Salmonella enterica subsp. enterica serovar Typhi
[3] = system: Streptomyces thermovulgaris; experiment: MIC per disc against Streptomyces thermonitrificans by disc diffusion method; format: functional
[4] = system: Staphylococcus aureus; experiment: MIC per disc in Staphylococcus aureus by disc diffusion method; format: functional
[5] = system: Escherichia coli; experiment: MIC per disc against Escherichia coli by disc diffusion method; format: functional
[6] = system: Pseudomonas aeruginosa; experiment: MIC per disc against Pseudomonas aeruginosa by disc diffusion method; format: functional
[7] = Salmonella enterica subsp. enterica serovar Typhi

Cc1ccc(C2NCCn3c2c(C)c2ccccc23)cc1 (stereo not drawn)
Activity [1]: 5% | MIC [2]: 15 µg | MIC [3]: 30 µg | MIC [4]: 30 µg | MIC [5]: 15 µg | MIC [6]: 60 µg

Cc1c2n(c3ccccc13)CCN(Cn1nnc3ccccc31)C2
MIC [2]: 60 µg | MIC [3]: inactive | MIC [4]: 30 µg | MIC [5]: inactive | MIC [6]: inactive

CCOP(=O)(CN1CCn2c(c(C)c3ccccc32)C1)OCC
MIC [2, 7]: inactive | MIC [3]: 60 µg | MIC [4]: inactive | MIC [5]: inactive | MIC [6]: 60 µg

Cc1cn2c(cc3ccccc32)c(-c2ccccc2)n1
MIC [2]: 60 µg | MIC [3]: 60 µg | MIC [4]: 60 µg | MIC [5]: 60 µg | MIC [6]: 60 µg

Cc1c2n(c3ccccc13)CCNC2c1ccc(F)cc1 (stereo not drawn)
Activity [1]: 5% | MIC [2]: 30 µg | MIC [3]: 7.5 µg | MIC [4]: 30 µg | MIC [5]: 15 µg | MIC [6]: 30 µg

Cc1c2n(c3ccccc13)CCN(Cc1ccccc1)C2
MIC [2]: 60 µg | MIC [3]: 60 µg | MIC [4]: 15 µg | MIC [5]: inactive | MIC [6]: 60 µg

Cc1c2n(c3ccccc13)CCNC2c1ccc(Br)cc1 (stereo not drawn)
MIC [2]: 60 µg | MIC [3]: 15 µg | MIC [4]: 15 µg | MIC [5]: inactive | MIC [6]: 60 µg

Cc1ccc(CN2CCn3c(c(C)c4ccccc43)C2)cc1
MIC [2]: 30 µg | MIC [3]: 60 µg | MIC [4]: 15 µg | MIC [5]: inactive | MIC [6]: 60 µg

Cc1c2n(c3ccccc13)CCNC2c1ccccc1 (stereo not drawn)
MIC [2, 7]: inactive | MIC [3]: inactive | MIC [4]: inactive | MIC [5]: inactive | MIC [6]: 3.75 µg

Cc1c2n(c3ccccc13)CCNC2c1ccc([N+](=O)[O-])cc1 (stereo not drawn)
Activity [1]: 5% | MIC [2]: 30 µg | MIC [3]: 15 µg | MIC [4]: 30 µg | MIC [5]: 30 µg | MIC [6]: 30 µg

Cc1c2n(c3ccccc13)CCNC2c1ccccn1 (stereo not drawn)
MIC [2, 7]: inactive | MIC [3]: inactive | MIC [4]: 3.75 µg | MIC [5]: inactive | MIC [6]: inactive

Cc1c2n(c3ccccc13)CCN(CC#N)C2
MIC [2]: 30 µg | MIC [3]: 30 µg | MIC [4]: 15 µg | MIC [5]: inactive | MIC [6]: 60 µg

GENTAMICIN
MIC [2, 7]: 1 µg | MIC [3]: 1 µg | MIC [4]: 1 µg | MIC [5]: 1 µg | MIC [6]: 0.5 µg

Cc1cn2c(cc3ccccc32)c(C)n1
MIC [2]: 60 µg | MIC [3]: 60 µg | MIC [4]: 60 µg | MIC [5]: 60 µg | MIC [6]: 60 µg

C[C@H]1c2cccc(O)c2C(=O)C2=C(O)[C@]3(O)C(=O)C(C(N)=O)=C(O)[C@@H](N(C)C)[C@@H]3[C@@H](O)[C@@H]21.Cl [DOXYCYCLINE HYDROCHLORIDE]
MIC [2]: 1 µg | MIC [3]: 1 µg | MIC [4]: 1 µg | MIC [5]: 2 µg | MIC [6]: 1 µg

Cc1c2n(c3ccccc13)CCN(C)C2
MIC [2]: 30 µg | MIC [3]: 30 µg | MIC [4]: 30 µg | MIC [5]: inactive | MIC [6]: 30 µg

Cc1c2n(c3ccccc13)CCNC2c1cccc(Cl)c1 (stereo not drawn)
MIC [2, 7]: inactive | MIC [3]: 3.75 µg | MIC [4]: inactive | MIC [5]: inactive | MIC [6]: 15 µg

Cc1c2n(c3ccccc13)CCNC2c1cccs1 (stereo not drawn)
MIC [2]: 30 µg | MIC [3]: inactive | MIC [4]: 60 µg | MIC [5]: inactive | MIC [6]: inactive

COc1cccc(C2NCCn3c2c(C)c2ccccc23)c1 (stereo not drawn)
MIC [2]: 30 µg | MIC [3]: 15 µg | MIC [4]: 60 µg | MIC [5]: 30 µg | MIC [6]: inactive
